# Results from patent US12492183B2, “Tetrahydroquinazoline derivatives as selective cytotoxic agents” (Merck Sharp & Dohme LLC, priority 2020, dated 2025).
# pEC50: −log10 of the molar value.
# Test system: PBMCs infected with VSV-G pseudotyped HIV virus (VSV-G/pNLG1-P2A-ΔEnv)
# Assay: cells
# Assay type: cell-based
# Details: Homo sapiens, PBMC, read-out: TACK EC50
row,Compound,pEC50
1,"NS(=O)(=O)c1ccc(Cc2cc3c(cc2F)[C@@](C#CC2CC2)(C(F)(F)F)NC(=O)N3)cc1 [Example 11, (S)-4-((4-(cyclopropylethynyl)-6-fluoro-2-oxo-4-(trifluoromethyl)-1,2,3,4-tetrahydroquinazolin-7-yl)methyl)benzenesulfonamide]",6.59
2,"Cn1cc(Cc2ccc3c(c2)NC(=O)N[C@]3(C#CC2CC2)C(F)(F)F)ccc1=O [Example 4, (S)-4-(cyclopropylethynyl)-7-((1-methyl-6-oxo-1,6-dihydropyridin-3-yl)methyl)-4-(trifluoromethyl)-3,4-dihydroquinazolin-2(1H)-one]",6.83
3,"CS(=O)(=O)c1ccc(Cc2cc3c(cc2F)[C@@](C#CC2CC2)(C(F)(F)F)NC(=O)N3)cc1 [Example 10, (S)-4-(cyclopropylethynyl)-6-fluoro-7-(4-(methylsulfonyl)-benzyl)-4-(trifluoromethyl)-3,4-dihydroquinazolin-2(1H)-one]",6.42
4,"Nc1nccc(Cc2c(F)cc3c(c2F)NC(=O)N[C@]3(C#CC2CC2)C(F)(F)F)n1 [Example 59, (S)-7-((2-aminopyrimidin-4-yl)methyl)-4-(cyclopropylethynyl)-6,8-difluoro-4-(trifluoromethyl)-3,4-dihydroquinazolin-2(1H)-one]",6.91
5,"Nc1cccc(Cc2cc3c(cc2F)[C@@](C#CC2CC2)(C(F)(F)F)NC(=O)N3)n1 [Example 13, (S)-2-amino-6-((4-(cyclopropyl-ethynyl)-6-fluoro-2-oxo-4-(trifluoromethyl)-1,2,3,4-tetra-hydroquinazolin-7-yl)methyl)-pyridin-1-ium 2,2,2-trifluoro-acetate]",6.89
6,"Cn1ccc(Cc2ccc3c(c2)NC(=O)N[C@]3(C#CC2CC2)C(F)(F)F)cc1=O [Example 5, (S)-4-(cyclopropylethynyl)-7-((1-methyl-2-oxo-1,2-dihydropyridin-4-yl)methyl)-4-(trifluoromethyl)-3,4-dihydroquinazolin-2(1H)-one]",6.80
7,"Nc1ncc(Cl)c(Cc2ccc3c(c2)NC(=O)N[C@]3(C#CC2CC2)C(F)(F)F)n1 [Example 28, (S)-7-((2-amino-5-chloropyr-imidin-4-yl)methyl)-4-(cyclo-propylethynyl)-4-(trifluoro-methyl)-3,4-dihydroquinazo-lin-2(1H)-one]",6.84
8,"O=C1Nc2cc(Cc3ccc(CO)cn3)c(F)cc2[C@@](C#CC2CC2)(C(F)(F)F)N1 [Example 41, (S)-2-((4-(cyclopropylethynyl)-6-fluoro-2-oxo-4-(trifluoromethyl)-1,2,3,4-tetrahydroquinazolin-7-yl)methyl)-5-(hydroxymethyl)pyridin-1-ium 2,2,2-trifluoroacetate]",7.04
9,Nc1cc(Cc2ccc3c(c2)NC(=O)N[C@]3(C#CC2CC2)C(F)(F)F)ccc1S(N)(=O)=O [Example 7],6.64
10,Cc1nc(C)c(Cc2ccc3c(c2)NC(=O)N(C)[C@]3(C#CC2CC2)C(F)(F)F)c(=O)[nH]1 [Example 22],6.64
11,"CC(F)(F)[C@@]1(C#CC2CC2)NC(=O)Nc2cc(Cc3ccc(S(N)(=O)=O)cc3)ccc21 (single isomer, unassigned) [Example 20]",6.94
12,"Cc1nc[nH]c(=O)c1Cc1ccc2c(c1)NC(=O)N[C@]2(C#CC1CC1)C(F)(F)F [Example 18, (S)-4-(cyclopropylethynyl)-7-((4-methyl-6-oxo-1,6-dihydro-pyrimidin-5-yl)methyl)-4-(trifluoromethyl)-3,4-dihydro-quinazolin-2(1H)-one]",6.76
13,"Nc1cccc(Cc2ccc3c(c2)NC(=O)N[C@]3(C#CC2CC2)C(F)(F)F)n1 [Example 35, (S)-7-((6-aminopyridin-2-yl)methyl)-4-(cyclopropylethynyl)-4-(trifluoromethyl)-3,4-dihydroquinazolin-2(1H)-one]",6.97
14,"N#Cc1cnccc1Cc1cc2c(cc1F)[C@@](C#CC1CC1)(C(F)(F)F)NC(=O)N2 [Example 56, (S)-4-((4-(cyclopropylethynyl)-6-fluoro-2-oxo-4-(trifluoromethyl)-1,2,3,4-tetrahydroquinazolin-7-yl)methyl)nicotinonitrile]",7.08
15,NC(=O)c1c(Cc2ccc3c(c2)NC(=O)N[C@]3(C#CC2CC2)C(F)(F)F)ccnc1N [Example 55],6.72
16,"Cc1nc(CO)[nH]c(=O)c1Cc1ccc2c(c1)NC(=O)N[C@]2(C#CC1CC1)C(F)(F)F [Example 63, (S)-4-(cyclopropylethynyl)-7-((2-(hydroxymethyl)-4-methyl-6-oxo-1,6-dihydropyrimidin-5-yl)methyl)-4-(trifluoromethyl)-3,4-dihydroquinazolin-2(1H)-one]",6.75
17,"O=C1Nc2cc(Cc3ccc[nH]c3=O)ccc2[C@@](C#CC2CC2)(C(F)(F)F)N1 [Example 3, (S)-4-(cyclopropylethynyl)-7-((2-oxo-1,2-dihydropyridin-3-yl)-methyl)-4-(trifluoromethyl)-3,4-dihydroquinazolin-2(1H)-one]",6.63

row,Compound,pEC50
1,"Nc1nccc(Cc2ccc3c(c2)NC(=O)N[C@]3(C#CC2CC2)C(F)(F)F)n1 [Example 25, (S)-7-((2-aminopyrimidin-4-yl)methyl)-4-(cyclopropylethynyl)-4-(trifluoromethyl)-3,4-dihydroquinazolin-2(1H)-one]",7.34
2,"Nc1ncc(F)c(Cc2cc3c(cc2F)[C@@](C#CC2CC2)(C(F)(F)F)NC(=O)N3)n1 [Example 29, (S)-7-((2-amino-5-fluoropyr-imidin-4-yl)methyl)-4-(cyclo-propylethynyl)-6-fluoro-4-(trifluoromethyl)-3,4-dihydro-quinazolin-2(1H)-one]",7.30
3,"Nc1cncc(Cc2ccc3c(c2)NC(=O)N[C@]3(C#CC2CC2)C(F)(F)F)n1 [Example 54, (S)-7-((6-aminopyrazin-2-yl)-methyl)-4-(cyclopropyl-ethynyl)-4-(trifluoromethyl)-3,4-dihydroquinazolin-2(1H)-one]",7.17
4,"O=C1Nc2cc(Cc3cnccn3)c(F)cc2[C@@](C#CC2CC2)(C(F)(F)F)N1 [Example 51, (S)-4-(cyclopropylethynyl)-6-fluoro-7-(pyrazin-2-ylmeth-yl)-4-(trifluoromethyl)-3,4-dihydroquinazolin-2(1H)-one]",7.02
5,"Nc1cc(Cc2ccc3c(c2)NC(=O)N[C@]3(C#CC2CC2)C(F)(F)F)ccn1 [Example 12, (S)-2-amino-4-((4-(cyclopropylethynyl)-2-oxo-4-(trifluoromethyl)-1,2,3,4-tetrahydroquinazolin-7-yl)methyl)pyridin-1-ium 2,2,2-trifluoroacetate]",6.88
6,"Cc1cc[nH]c(=O)c1Cc1ccc2c(c1)NC(=O)N[C@]2(C#CC1CC1)C(F)(F)F [Example 2, (S)-4-(cyclopropylethynyl)-7-((4-methyl-2-oxo-1,2-dihydropyridin-3-yl)methyl)-4-(trifluoromethyl)-3,4-dihydroquinazolin-2(1H)-one]",6.88
7,"Cc1ncc(Cc2ccc3c(c2)NC(=O)N[C@]3(C#CC2CC2)C(F)(F)F)c(=O)[nH]1 [Example 16, (S)-4-(cyclopropylethynl)-7-((2-methyl-6-oxo-1,6-dihydropyrimidin-5-yl)methyl)-4-(trifluoromethyl)-3,4-dihydroquinazolin-2(1H)-one]",6.82
8,"O=C1Nc2cc(Cc3ccncc3)c(F)cc2[C@@](C#CC2CC2)(C(F)(F)F)N1 [Example 57, (S)-4-(cyclopropylethynyl)-6-fluoro-7-(pyridin-4-ylmethyl)-4-(trifluoromethyl)-3,4-dihydroquinazolin-2(1H)-one]",6.92
9,"Nc1nc(Cc2ccc3c(c2)NC(=O)N[C@]3(C#CC2CC2)C(F)(F)F)ccc1CO [Example 45, (S)-7-((6-amino-5-(hydroxymethyl)pyridin-2-yl)methyl)-4-(cyclopropylethynyl)-4-(trifluoromethyl)-3,4-dihydroquinazolin-2(1H)-one]",7.27
10,"CC(F)(F)[C@@]1(C#CC2CC2)NC(=O)Nc2cc(Cc3ccnc(N)n3)c(F)cc21 [Example 47, (S)-7-((2-aminopyrimidin-4-yl)methyl)-4-(cyclopropylethynyl)-4-(1,1-difluoroethyl)-6-fluoro-3,4-dihydroquinazolin-2(1H)-one]",7.77
11,"Cc1cc(Cc2ccc3c(c2)NC(=O)N[C@]3(C#CC2CC2)C(F)(F)F)nc(N)n1 [Example 27, (S)-7-((2-amino-6-methylpyr-imidin-4-yl)methyl)-4-(cyclo-propylethynyl)-4-(trifluoro-methyl)-3,4-dihydroquin-azolin-2(1H)-one]",6.82
12,"CN1C(=O)Nc2cc(Cc3ccnc(N)n3)ccc2[C@@]1(C#CC1CC1)C(F)(F)F [Example 39, (S)-7-((2-aminopyrimidin-4-yl)methyl)-4-(cyclopropylethynyl)-3-methyl-4-(trifluoromethyl)-3,4-dihydroquinazolin-2(1H)-one]",7.22
13,"CC(F)(F)[C@@]1(C#CC2CC2)NC(=O)Nc2cc(Cc3nc(N)ncc3F)ccc21 [Example 58, (S)-7-((2-amino-5-fluoropyrimidin-4-yl)methyl)-4-(cyclopropylethynyl)-4-(1,1-difluoroethyl)-3,4-dihydroquinazolin-2(1H)-one]",7.08
14,"NS(=O)(=O)c1ccc(Cc2ccc3c(c2)NC(=O)N[C@]3(C#CC2CC2)C(F)(F)F)c(F)c1 [Example 6, (S)-4-((4-(cyclopropylethynyl)-2-oxo-4-(trifluoromethyl)-1,2,3,4-tetrahydroquinazolin-7-yl)methyl)-3-fluorobenzenesulfonamide]",6.55
15,"Nc1ncc(F)c(Cc2ccc3c(c2)NC(=O)N[C@]3(C#CC2CC2)C(F)(F)F)n1 [Example 15, (S)-7-((2-amino-5-fluoropyrimi-din-4-yl)methyl)-4-(cycloprop-ylethynyl)-4-(trifluoromethyl)-3,4-dihydroquinazolin-2(1H)-one]",7.67
16,"CN1C(=O)Nc2cc(Cc3ccnc(N)n3)c(Cl)cc2[C@@]1(C#CC1CC1)C(F)(F)F (single isomer, unassigned) [Example 30]",7.19
17,"NS(=O)(=O)c1ccc(Cc2ccc3c(c2)NC(=S)N[C@]3(C#CC2CC2)C(F)(F)F)cc1 [Example 44, (S)-4-((4-(cyclopropylethynyl)-2-thioxo-4-(trifluoromethyl)-1,2,3,4-tetrahydroquinazolin-7-yl)methyl)benzenesulfonamide]",6.74
